From patent publication US10450549B2, “Aryloxyphenoxypropionate tolerance in turfrgass species and use of AAD1 as a selectable marker” (Dow AgroSciences, LLC, priority 2004, dated 2019)

How the values were obtained:
[1] = test system: T4 Arabidopsis homozygous for AAD1 (v3) (line AAD1.01.315.076); test: Foliar-applied auxinic herbicides on homozygous T4 AAD1 (v3) Arabidopsis, % injury 14 DAT; assay type: in vivo, Arabidopsis thaliana; details: AAD1.01.315.076.T4 homozygous AAD1 plants
Method in brief: (§1)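 Homozygous T4 AAD1 (v3) Arabidopsis (line AAD1.01.315.076) and a PAT/Cry1F transformed control were grown in pots and track-sprayed foliarly at 187 L/ha with herbicides formulated in 200 mM Hepes pH 7.5. Injury was rated 14 days after treatment, with 3-4 replicates averaged over two experiments.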

[2] = test system: transformed-control line containing PAT and Cry1F; test: Foliar-applied auxinic herbicides on control (PAT/Cry1F, wildtype) Arabidopsis, % injury 14 DAT; assay type: in vivo, Arabidopsis thaliana; details: PatCry1f - Control
Method in brief: as §1

[3] = test system: F1 corn containing AAD1 (v3), PAT, and glyphosate resistance genes; test: Greenhouse injury of F1 corn stacked with AAD1 (v3), PAT and glyphosate resistance (2,4-D DMA, glyphosate, glufosinate and combinations); assay type: in vivo; details: RR/PAT/AAD1
Excerpt: Homozygous T2 AAD1 (v3)/PAT corn plants were crossed with glyphosate resistant corn plants producing F1 seed containing AAD1 (v3), PAT, and glyphosate resistance genes as described in the previous example.
(§2) F1 seeds were planted individually into 3-inch pots prepared with Metro-Mix® 360 growing medium (Sun Gro Horticulture). […] For the remainder of the study the plants were subirrigated with deionized water.
(§3) The plants were sprayed with rates of 2,4-D DMA, glyphosate, glufosinate, and various combinations of the three. All applications were formulated in 200 mM Hepes buffer (pH 7.5). In spray applications where glufosinate was present the treatment was formulated with the addition of 2% w/v ammonium sulfate.
(§4) At 3 and 14 days after treatment (DAT) plants were evaluated. Plants were assigned injury rating with respect to stunting, chlorosis, and necrosis. Plants assigned an injury rating of 90% or above are considered dead.

[4] = test system: AAD1 (v3) T1 tobacco (events 721(2)-013.010 and 721(3)-008.005); test: Segregating AAD1 T1 tobacco response to phenoxy auxin herbicides; assay type: in vivo, Nicotiana tabacum
Excerpt: (§5) Two AAD1 (v3) tobacco lines (event 721(2)-013.010 and 721(3)-008.005) were chosen from the T0 generation. The T1 seed was stratified, and sown into selection trays much like that of Arabidopsis (Example 6.4), followed by selective removal of untransformed nulls in this segregating population with 280 g ai/ha glufosinate (PAT selection). Survivors were transferred to individual 3-inch pots in the greenhouse. […] Improved consistency of response is anticipated in T1 plants not having come directly from tissue culture. These plants were compared against wildtype KY 160 tobacco. All plants were sprayed with the use of a track sprayer set at 187 L/ha. […] All applications were formulated in 200 mM Hepes buffer (pH 7.5). Each treatment was replicated 4 times. Plants were evaluated at 3 and 14 days after treatment. Plants were assigned injury rating with respect to stunting, chlorosis, and necrosis. The T1 generation is segregating, so some variable response is expected due to difference in zygosity. (Table 28).

[5] = test system: wildtype KY 160 tobacco; test: Wildtype tobacco response to phenoxy auxin herbicides; assay type: in vivo, Nicotiana tabacum; details: KY160-Wildtype
Protocol: Each treatment was replicated 1-3 times. Injury ratings were recorded 3 and 14 DAT. […] In several events, some initial auxinic herbicide-related epinasty occurred at doses of 800 g ae/ha or less. […] All events suffered some level temporary auxinic damage 3 DAT when treated with 3200 g ae/ha. Some leaf burning also occurred at this high rate due to the acidity of the spray solution. Future trials at high 2,4-D rates were buffered. […] Some events were inconsistent in response among replicates and were deemed “variable” (Table 27).
as §5

[6] = test system: AAD1 (v3) cotton plant; test: 2,4-D resistance of AAD1 (v3) cotton plant; assay type: in vivo; details: 560 g ae/ha
Protocol: (§6) Two AAD1 (v3) cotton lines have produced plants according to the above protocol that have been sent to the greenhouse. […] The plants were sprayed at 560 g ae/ha 2,4-DMA formulated in 200 mM Hepes buffer (pH 7.5). The plants were evaluated at 3, 7, and 14 days after treatment. Plants were assigned injury ratings with respect to stunting, chlorosis, and necrosis. Plants assigned an injury rating of 90% or above are considered dead. […] By 7 DAT epinasy continued on the wild-type and the new growth shoots began turning brown. It received a rating of 50% at this time. At 14 DAT the AAD1 (v3) plant was still uninjured, whereas the wild-type was severely stunted, and the new growth areas were brown and shriveled. Thus, the wild-type received a rating of 90% at 14 DAT.

[7] = test system: wild-type cotton plants; test: 2,4-D injury of wild-type cotton plant; assay type: in vivo; details: 560 g ae/ha
Protocol: as §6

[8] = test system: Hi II X 5XH751; test: Greenhouse injury of non-transformed Hi II X 5XH751 corn (2,4-D DMA, glyphosate, glufosinate and combinations); assay type: in vivo
Protocol: as §2, §3, §4

[9] = target: T1, AAD1 (v1) (Sphingobium herbicidovorans, UniProt Q8KSC8); test: Colorimetric phenol detection assay of AAD1 (v1) activity (purified enzyme or E. coli extract); assay type: biochemical
T1 construct: made in house; host or cells: E. coli BL-21 Star (DE3), plasmid pDAB3203

[10] = target: AAD2 (v1) (Bradyrhizobium diazoefficiens, UniProt Q89UC4); test: Colorimetric phenol assay of AAD2 (v1) E. coli extract / partially purified enzyme; assay type: biochemical, Bradyrhizobium japonicum; details: E. coli extract
[11] = test system: immature Hi-II embryos; test: Dose response using immature maize embryos (% embryogenic callus formation); assay type: cell-based; details: up to 30 nM
Protocol: Dose response studies were initiated using immature embryos treated with Agrobacterium strain LBA4404 lacking a plasmid as described previously. Once treated, embryos were allowed to co-cultivate for 5 days at 25° C. and were then transferred to selection media containing various levels of R-haloxyfop or R-cyhalofop. Embryos were also transferred to media containing 1 mg/L bialaphos and 100 nM imazethapyr as negative controls. Embryos were scored for % embryogenic callus formation after 2 weeks, and then again after 4 weeks.

[12] = test system: non-transformed (NT) ‘Shamrock’ Kentucky bluegrass; test: Haloxyfop-R-methyl on non-transformed Kentucky bluegrass controls; assay type: in vivo; details: seed grown plants
Protocol: The selected T0 plants were sprayed with haloxyfop-R-methyl (Gallant Super®, DOW AGROSCIENCES, INC.) at rates ranging from 140 to 560 g ae/ha. […] This rate would also control susceptible monocot weed species. Measured amounts were placed individually in 25 mL glass vials and dissolved in a 12 mL volume of 1.0% (v/v) Agri-Dex® Crop Oil Concentrate (COC).
Spray solutions were applied to the plant material with an overhead Mandel™ track sprayer equipped with a 8002E nozzles calibrated to deliver 187 L/ha over an application area of 0.503 square meters (m^2) at a spray height of 18 inches (46 cm) above average plant canopy height. Control plants were sprayed in the same manner with the COC blank.
The treated plants and control plants were placed in a greenhouse and watered by sub-irrigation to prevent wash-off of the test compounds. At various times after application, the condition of the test plants as compared with that of the untreated plants was determined visually and scored on a scale of 0 to 100 percent, where 0 corresponds to no injury or growth inhibition, and 100 corresponds to complete kill. Regenerated, non-transformed (NT) ‘Shamrock’ Kentucky bluegrass plants and/or seed-derived clonally propagated plants served as haloxyfop sensitive controls.

[13] = test system: pDAB3230-transformed Arabidopsis; test: Glyphosate tolerance of pDAB3230 (AAD1 (v3)+EPSPS) T1 Arabidopsis; assay type: in vivo, Arabidopsis thaliana; details: 7 DAT; EPSPS stacked with AAD1 (v3)

CNC.O=C(O)COc1ccc(Cl)cc1Cl [2,4-DMA]
Ave % Injury 14DAT ([1]; 12.5 g ae/ha foliar): 0% | Ave % Injury 14DAT ([1]; 25 g ae/ha foliar): 0% | Ave % Injury 14DAT ([1]; 50 g ae/ha foliar): 0% | Ave % Injury 14DAT ([1]; 100 g ae/ha foliar): 0% | Ave % Injury 14DAT ([1]; 200 g ae/ha foliar): 0% | Ave % Injury 14DAT ([1]; 400 g ae/ha foliar): 0% | Ave % Injury 14DAT ([1]; 800 g ae/ha foliar): 0% | Ave % Injury 14DAT ([1]; 1600 g ae/ha foliar): 0% | Ave % Injury 14DAT ([2]; 12.5 g ae/ha foliar): 67% | Ave % Injury 14DAT ([2]; 25 g ae/ha foliar): 78% | Ave % Injury 14DAT ([2]; 50 g ae/ha foliar): 93% | Ave % Injury 14DAT ([2]; 100 g ae/ha foliar): 100% | Ave % Injury 14DAT ([2]; 200 g ae/ha foliar): 100% | Ave % Injury 14DAT ([2]; 400 g ae/ha foliar): 100% | Ave % Injury 14DAT ([2]; 800 g ae/ha foliar): 100% | Ave % Injury 14DAT ([2]; 1600 g ae/ha foliar): 100% | % Injury at 14 DAT Ave ([3]; 560 g ae/ha (1X)): 0% | % Injury at 14 DAT Ave ([3]; 1120 g ae/ha (2X)): 0% | % Injury at 14 DAT Ave ([3]; 2240 g ae/ha (4X)): 0% | Average % Injury of Replicates 14 DAT ([4]; 560 g ae/ha, 721(2)013.010 (medium tolerance in T0 generation)): 5% | Average % Injury of Replicates 14 DAT ([4]; 560 g ae/ha, 721(3)008.005 (high tolerance in T0 generation)): 0% | Average % Injury of Replicates 14 DAT ([4]; 1120 g ae/ha, 721(2)013.010 (medium tolerance in T0 generation)): 5% | Average % Injury of Replicates 14 DAT ([4]; 1120 g ae/ha, 721(3)008.005 (high tolerance in T0 generation)): 2% | Average % Injury of Replicates 14 DAT ([4]; 2240 g ae/ha, 721(2)013.010 (medium tolerance in T0 generation)): 5% | Average % Injury of Replicates 14 DAT ([4]; 2240 g ae/ha, 721(3)008.005 (high tolerance in T0 generation)): 0% | Average % Injury of Replicates 14 DAT ([4]; 4480 g ae/ha, 721(2)013.010 (medium tolerance in T0 generation)): 5% | Average % Injury of Replicates 14 DAT ([4]; 4480 g ae/ha, 721(3)008.005 (high tolerance in T0 generation)): 5% | Average % Injury of Replicates 14 DAT ([5]; 560 g ae/ha): 75% | Average % Injury of Replicates 14 DAT ([5]; 1120 g ae/ha): 80% | Average % Injury of Replicates 14 DAT ([5]; 2240 g ae/ha): 90% | Average % Injury of Replicates 14 DAT ([5]; 4480 g ae/ha): 95% | injury, AAD1 (v3) cotton ([6]; 3 DAT): 0% | injury, AAD1 (v3) cotton ([6]; 14 DAT): uninjured | injury rating, wild-type cotton ([7]; 3 DAT): 15% | injury rating, wild-type cotton ([7]; 7 DAT): 50% | injury rating, wild-type cotton ([7]; 14 DAT): 90% | % Injury at 14 DAT Ave ([8]; 560 g ae/ha (1X)): 10% | % Injury at 14 DAT Ave ([8]; 1120 g ae/ha (2X)): 14% | % Injury at 14 DAT Ave ([8]; 2240 g ae/ha (4X)): 29%

C[C@@H](Oc1ccc(Oc2ncc(C(F)(F)F)cc2Cl)cc1)C(=O)O [R-haloxyfop]
activity of AAD1 (v1) E. coli extract on substrate ([9]; 0.5 mM substrate, 4 μl extract, 15 min): equivalent to that on (R,S)-haloxyfop | kcat ([9]; purified AAD1 (v1)): 0.187 s⁻¹ | Km ([9]; purified AAD1 (v1), 25 mM MOPS pH 6.8, 25° C., read-out: Km ± SE): 120 ± 54 µM | Vmax ± SE ([9]; purified AAD1 (v1), Michaelis-Menten fit): 0.34 ± 0.04 μmol min^−1 mg^−1 AAD1 | AAD2 (v1) activity on substrate [10]: unable to act | reduction of embryogenic callus formation [11]: insufficient reduction of callus formation

COC(=O)[C@@H](C)Oc1ccc(Oc2ncc(C(F)(F)F)cc2Cl)cc1 [haloxyfop-R-methyl]
GR90 (herbicide rate which produces 90% injury and/or growth inhibition) [12]: approximately 70 g ae/ha

O=C(O)CNCP(=O)(O)O [glyphosate]
level of glyphosate tolerance (I50) vs. wildtype and transformed control lines [13]: > 14 fold | % Injury at 14 DAT Ave ([3]; 840 g ae/ha (1X field rate)): 0% | % Injury at 14 DAT Ave ([3]; 1680 g ae/ha (2X)): 0% | % Injury at 14 DAT Ave ([3]; 3360 g ae/ha (4X)): 0% | % Injury at 14 DAT Ave ([8]; 840 g ae/ha (1X field rate)): 98% | % Injury at 14 DAT Ave ([8]; 1680 g ae/ha (2X)): 100% | % Injury at 14 DAT Ave ([8]; 3360 g ae/ha (4X)): 100%
